One block for each compound: values may come before it.
How the values were obtained:
Type in all cases: biochemical
[1] = molecular target: T1, BlaMab (M. abscessus endogenous class A beta-lactamase) (Mycobacteroides abscessus, UniProt B1MCI3); assay: TLC turnover assay with recombinant BlaMab
T1 construct: gene MAB_2875; -30 residue N-terminal truncated protein, 6x-His tagged

[2] = molecular target: T1, BlaMab (M. abscessus endogenous class A beta-lactamase); assay: nitrocefin hydrolysis kinetics (Ki app, k2/Ki, koff) with recombinant BlaMab; TLC penicillin V assay
[3] = molecular target: T1, BlaMab (M. abscessus endogenous class A beta-lactamase); assay: spectrophotometric hydrolysis at […] nm, Michaelis-Menten (Km across […] relebactam)

T1 sequence (B1MCI3 entry or part of it): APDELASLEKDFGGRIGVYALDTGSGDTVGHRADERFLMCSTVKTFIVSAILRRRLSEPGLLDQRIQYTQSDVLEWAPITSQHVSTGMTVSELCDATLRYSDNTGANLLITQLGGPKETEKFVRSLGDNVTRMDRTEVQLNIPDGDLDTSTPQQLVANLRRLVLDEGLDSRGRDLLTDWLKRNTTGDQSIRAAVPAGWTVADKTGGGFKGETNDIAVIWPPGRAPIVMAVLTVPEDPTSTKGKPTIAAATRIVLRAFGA

Structure (SMILES): CC1(C)S[C@@H]2[C@H](NC(=O)COc3ccccc3)C(=O)N2[C@H]1C(=O)O [PenV, penicillin V]
TLC turnover assay with recombinant BlaMab [1]: The hydrolysis of penicillin V to penicilloic acid by BlaMab resulted in a spot with reduced Rf value

Ki [2]: 184 nM
Structure (SMILES): O=C(NC1CCNCC1)[C@@H]1CC[C@@H]2CN1C(=O)N2OS(=O)(=O)O [REL, relebactam]

Structure (SMILES): O=C(Cc1cccs1)N[C@@H]1C(=O)N2C(C(=O)O)=C(/C=C/c3ccc([N+](=O)[O-])cc3[N+](=O)[O-])CS[C@H]12 [nitrocefin]
Km [3]: 69.43–16.96 µM

From publication PMC6985242, “Effect of Amoxicillin in combination with Imipenem-Relebactam against Mycobacterium abscessus” (Scientific Reports, 2020)
